These results are taken from US4026888A, “Certain derivatives of particular 3-thiolated cephalosporins” (priority 1976, dated 1977).

Values after ≈ are worked out from the molar mass of the structure shown.

The nature of data set [1]: Water solubility. The class given is physicochemical. The settings on record: in water at 23° C., read-out: Water solubility.
A short description of data set [2]: Stability of solids. It is filed as physicochemical. To be noted: solid, read-out: Loss of bioactivity on storage at elevated temperatures.
For data set [3], the system named is E. coli A15119. Description: Oral PD50 in mice. It is filed as in vivo. To be noted: Escherichia coli, A15119, po, 3.5 h, oral; mice treated at 1 and 3.5 hours post-challenge; read-out: PD50. As to the method:
(§1) Comparative Oral PD50 Values of
(§2) BL-S640 Derivatives in Mice
(§3) *Mice were treated at 1 and 3.5 hours post-challenge.

Data set [4] relates to K. pneumoniae A9977. Nature of the data set: Oral PD50 in mice. It is filed as in vivo. The settings on record: Klebsiella pneumoniae, A9977; oral; mice treated at 1 and 3.5 hours post-challenge; read-out: PD50. Here is the method:
as §1, §2, §3

Data set [5] concerns P. mirabilis A9707. Description: Oral PD50 in mice. The class given is in vivo. To be noted: Proteus mirabilis, mice treated at 1 and 3.5 hours post-challenge. Here is the method: as §1, §2, §3
The subject of data set [6] is S. pyogenes A9604. Nature of the data set: Oral PD50 in mice. It is filed as in vivo. To be noted: Streptococcus pyogenes, mice treated at 1 and 3.5 hours post-challenge. Here is the method: as §1, §2, §3
For data set [7], the system named is P. mirabilis A9900. Nature of the data set: Oral PD50 in mice. It is filed as in vivo. To be noted: oral, mice treated at 1 and 3.5 hours post-challenge.
For data set [8], the system named is P. mirabilis A9900. Nature of the data set: IM PD50 in mice. It is filed as in vivo. The settings on record: Proteus mirabilis.
Description: Comparative IM PD50 Values of
as §2

The subject of data set [9] is Str. pneumoniae A9585. Description: Antibiotic activity in nutrient broth (MIC). It is filed as cell-based. The settings on record: Streptococcus pneumoniae, A9585, inoculum 10^-3 dilution of overnight broth culture; 45% AAB + 5% serum + 50% broth; derivatives adjusted for BL-S640 content. The text has this: (§4) Antibiotic Activity In Nutrient Broth
(§5) * 45% AAB+ 5% serum+ 50% broth listed above.
(§6) ** Dilution of overnight broth culture.
(§7) Antibiotic Spectrum Nutrient Broth
(§8) * 45% AAB + 5% serum + 50% broth
(§9) Antibiotic Spectrum in Nutrient Broth
(§10) *45% AAB + 5% serum + 50% broth listed above.

The test system of data set [10] is Str. pyogenes A9604. Description: Antibiotic activity in nutrient broth (MIC). It is filed as cell-based. The settings on record: Streptococcus pyogenes, A9604, inoculum 10^-3; 45% AAB + 5% serum + 50% broth; derivatives adjusted for BL-S640 content; read-out: MIC.
Description: as §4, §5, §6, §7, §8, §9, §10

Data set [11] relates to E. coli A9675. Description: Antibiotic activity in nutrient broth (MIC). It is filed as cell-based. The settings on record: Escherichia coli, A9675.
Description: as §4, §6, §7, §9

The subject of data set [12] is E. coli Juhl A15119. Description: Antibiotic activity in nutrient broth (MIC). It is filed as cell-based. To be noted: Escherichia coli, JUHLA15119.
Description: as §4, §6, §7, §9

The subject of data set [13] is Ent. cloacae A9656. Nature of the data set: Antibiotic activity in nutrient broth (MIC). To be noted: Enterobacter cloacae, A9656, inoculum 10^-4; derivatives adjusted for BL-S640 content. It is filed as cell-based.
Description: as §4, §6, §7, §9

Data set [14] deals with Ent. cloacae A9657. Nature of the data set: Antibiotic activity in nutrient broth (MIC). It is filed as cell-based. The settings on record: Enterobacter cloacae, A9657, inoculum 10^-4; derivatives adjusted for BL-S640 content; read-out: MIC.
Description: as §4, §6, §7, §9

The test system of data set [15] is Ent. cloacae A9659. Nature of the data set: Antibiotic activity in nutrient broth (MIC). It is filed as cell-based. The settings on record: Enterobacter cloacae, A9659.
Description: as §4, §6, §7, §9

In data set [16] the test system is K. pneumoniae A15130. Description: Antibiotic activity in nutrient broth (MIC). The class given is cell-based. The settings on record: Klebsiella pneumoniae, A15130.
Description: as §4, §6, §7, §9

Data set [17] concerns K. pneumoniae A9977. Nature of the data set: Antibiotic activity in nutrient broth (MIC). It is filed as cell-based. To be noted: Klebsiella pneumoniae.
Description: as §4, §6, §7, §9

Data set [18] deals with Pr. mirabilis A9900. Nature of the data set: Antibiotic activity in nutrient broth (MIC). The class given is cell-based. The settings on record: Proteus mirabilis, inoculum 10^-4, derivatives adjusted for BL-S640 content.
Description: as §4, §6, §7, §9

Data set [19] concerns Pr. morganii A15153. Nature of the data set: Antibiotic activity in nutrient broth (MIC). It is filed as cell-based. To be noted: Morganella morganii, A15153.
Description: as §4, §6, §7, §9

The subject of data set [20] is Ps. aeruginosa A9843A. Description: Antibiotic activity in nutrient broth (MIC). It is filed as cell-based. The settings on record: Pseudomonas aeruginosa.
Description: as §4, §6, §7, §9

For data set [21], the system named is S. aureus BX1633 A9606. Nature of the data set: Antibiotic activity in nutrient broth (MIC). The class given is cell-based. The settings on record: Staphylococcus aureus, derivatives adjusted for BL-S640 content.
Description: as §4, §6, §7, §9

For data set [22], the system named is S. aureus Meth-Res A15097. Description: Antibiotic activity in nutrient broth (MIC). To be noted: Staphylococcus aureus. It is filed as cell-based.
Description: as §4, §6, §7, §9

Data set [23] concerns S. aureus Smith A9537. Nature of the data set: Antibiotic activity in nutrient broth (MIC). The settings on record: Staphylococcus aureus, SMITHA9537, inoculum 10^-4, derivatives adjusted for BL-S640 content. The class given is cell-based.
Description: as §4, §6, §7, §9

The test system of data set [24] is Sal. enteritidis A9531. Description: Antibiotic activity in nutrient broth (MIC). The class given is cell-based. To be noted: Salmonella enterica, ENTERITIDIS, inoculum 10^-4; derivatives adjusted for BL-S640 content; read-out: MIC.
Description: as §4, §6, §7, §9

In data set [25] the test system is Ser. marcescens A20019. Nature of the data set: Antibiotic activity in nutrient broth (MIC). It is filed as cell-based. The settings on record: Serratia marcescens, A20019, inoculum 10^-4; derivatives adjusted for BL-S640 content.
Description: as §4, §6, §7, §9

For orientation: solubility means the dissolved amount per volume that the medium holds. As to `N[C@@H](C(=O)N[C@@H]1C(=O)N2C(C(=O)O)=C(CSc3c[nH]nn3)CS[C@H]12)c1ccc(O)cc1` [7-[D-α-amino-α-(p-hydroxyphenyl)acetamido]-3-(1,2,3-triazol-5-ylthiomethyl)-3-cephem-4-carboxylic acid propylene glycol solvate], in data set [1], the solubility is around 10000 µg/mL. The degraded at 720 h in data set [2] (56° C., 1 month) is below 10%. The degraded at 24 h in data set [2] (100° C., 24 hours) is below 6%. Moreover, the degraded at 48 h in [2] (100° C., 48 hours) was below 12%.

Consider `CC1=C(C(=O)O)N2C(=O)[C@@H](NC(=O)[C@H](N)c3ccccc3)[C@H]2SC1` [Cephalexin, reference compound], for which the ED50 in data set [3] was 13 mg/kg; in data set [4], 43 mg/kg; in data set [5], 50 mg/kg; in [6] it was 11 mg/kg; in data set [7] (Proteus mirabilis, A9900, po, 3.5 h, read-out: PD50) it was 66 mg/kg; in data set [8] it was 50 mg/kg. This compound also showed a PD50 in [7] of 55 mg./kg./treatment.

A word on the MIC: it is the lowest concentration found to suppress growth. Regarding `CC(=O)OCC1=C(C(=O)O)N2C(=O)[C@@H](NC(=O)Cc3cccs3)[C@H]2SC1` [Cephalothin, reference compound], the MIC in [9] was 0.03 µg/mL; in data set [10], 0.03 µg/mL; in data set [11] it was 32 µg/mL (≈ 80.7 µM); in [12], 16 µg/mL (≈ 40.4 µM); in [13], above 125 µg/mL; in data set [14] it was 8 µg/mL (≈ 20.2 µM). For the same compound, the MIC in data set [15] is above 125 µg/mL; in [16], 32 µg/mL (≈ 80.7 µM); in [17] it was 1 µg/mL (≈ 2.52 µM); in data set [18], 1 µg/mL (≈ 2.52 µM); in data set [19] it was above 125 µg/mL; in data set [20], above 125 µg/mL. The MIC in [21] (BX1633A9606, inoculum 10^-2) was 0.25 µg/mL (≈ 0.631 µM); in data set [21] (BX1633A9606, inoculum 10^-3), 0.13 µg/mL (≈ 0.328 µM); in [22] it was 1 to 16 µg/mL (≈ 2.52 to 40.4 µM); in data set [23] (+ 50% serum), 0.5 µg/mL; in [23] (nutrient broth), 0.13 µg/mL (≈ 0.328 µM); in data set [24], 0.25 µg/mL (≈ 0.631 µM). In data set [25], the MIC is above 125 µg/mL.
